Patent publication EP0044212B1, “Herbicidal o-alkylsulfonyloxy- and o-alkylsulfonylamino-benzenesulfonamides” (E.I. DU PONT DE NEMOURS AND COMPANY, priority 1980, dated 1982)

Columns and labels:
Wild Oats = assay: Test B pre-emergence on Fallsington silt loam; format: in vivo, Avena fatua; parameters: scale not given here; conditions: 28 days
Description: (§1) Two plastic bulb pans were filled with fertilized and limed Fallsington silt loam soil. One pan was planted with corn, sorghum, Kentucky bluegrass and several grassy weeds. The other pan was planted with cotton, soybeans, purple nutsedge (Cyperus rotundus), and several broadleaf weeds. The following grassy and broadleaf weeds were planted: crabgrass (Digitaria sanguinalis), barnyardgrass (Echinochloa crusgalli), wild oats (Avena fatua), johnsongrass (Sorghum halepense), dallisgrass (Paspalum dilatatum), giant foxtail (Setaria faberii), cheatgrass (Bromus secalinus), mustard (Brassica arvensis), cocklebur (Xanthium pensylvanicum), pigweed (Amaranthus retroflexus), morningglory (Ipomoea hederacea), cassia (Cassia tora), teaweed (Sida spinosa), velvetleaf (Abutilon theophrasti), and jimsonweed (Datura stramonium). A 12.5 cm diameter plastic pot was also filed with prepared soil and planted with rice and wheat. Another 12.5 cm pot was planted with sugarbeets. The above four containers were treated pre- emergence with several test compounds within the scope of the invention.
(§2) Twenty-eight days after treatment, the plants were evaluated and visually rated for response to the chemical treatments utilizing the rating system described previously for Test A. The data are summarized in Table B.

Mustard = assay: Test B pre-emergence on Fallsington silt loam; format: in vivo, Brassica arvensis; conditions: 28 days
Description: as §1, §2

Cotton [1] = assay: Test B pre-emergence on Fallsington silt loam; format: in vivo; conditions: 28 days
Description: as §1, §2

Sorghum = assay: Test B pre-emergence on Fallsington silt loam; format: in vivo; conditions: 28 days
Description: as §1, §2

Teaweed = assay: Test B pre-emergence on Fallsington silt loam; format: in vivo, Sida spinosa; conditions: 28 days
Description: as §1, §2

Velvetleaf = assay: Test B pre-emergence on Fallsington silt loam; format: in vivo, Abutilon theophrasti; conditions: 28 days
Description: as §1, §2

Water Chestnut = assay: Test E application to paddy water after transplanting of rice; format: in vivo, Eleocharis spp.
Description: (§3) Test samples were formulated and applied directly to the paddy water three days after transplanting of rice. The test was maintained in a greenhouse, and plant response ratings were taken at the stated intervals after application.

Cocklebur [2] = assay: Test B pre-emergence on Fallsington silt loam; format: in vivo, Xanthium pensylvanicum; conditions: 28 days
Description: as §1, §2

Barnyardgrass = assay: Test E application to paddy water after transplanting of rice; format: in vivo, Echinochloa spp.
Description: as §3

Cocklebur [3] = assay: Test F over-the-top soil/foliage treatment; format: in vivo, Xanthium pensylvanicum; conditions: soil/foliage spray, ~14 days
Procedure: The test chemicals, dissolved in a non-phytotoxic solvent, were applied in an overall spray to the foliage and surrounding […] of selected plant species. […] Approximately fourteen days after treatment, all species were visually compared to untreated controls and rated for response to treatment.
All plant species were seeded in Woodstown sandy loam soil and grown in a greenhouse. The following species were grown in soil contained in plastic pots (25 cm diameter by 13 cm deep): soybeans, cotton, alfalfa, corn, rice, wheet, sorghum, velvetleaf (Abutilon theophrasti), sesbania (Sesbania exaltata), Cassia (Cassia tora), morningglory (Ipomoea hederacea), jimsonweed (Datura stramonium), cocklebur (Xanthium pensylvanicum), crabgrass (Digitaria spp.), nutsedge (Cyperus rotundus), barnyardgrass (Echinochloa crusgalli), giant foxtail (Setaria faberii) and wild oats (Avena fatua). The following species were grown in soil in a paper cup (12 cm diameter by 13 cm deep): sunflower, sugarbeets, and mustard. All plants were sprayed approximately 14 days after planting.

Rice [4] = assay: Test E application to paddy water after transplanting of rice; format: in vivo
Description: as §3

Cotton [5] = assay: Test F over-the-top soil/foliage treatment; format: in vivo; conditions: soil/foliage spray, ~14 days
Summary of the method: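 Seed in sandy loam (Woodstown), grow in greenhouse. Spray compound, dissolved in a non-phytotoxic solvent, over plants and soil at ~14 days after planting. Score response visually versus untreated controls after ~14 days.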

Soybeans = assay: Test G broadleaf herbicidal properties, overall spray; format: in vivo, soybean; conditions: 0.015 kg/ha, 22 days after treatment
Procedure: Approximately 12 soybean plants were grown in a 25 cm. diameter plastic pot. In another pot of equal size the following broadleaf plant species were grown: sugarbeets, velvetleaf, Sesbania, Cassia, mustard, morningglory, alfalfa, jimsonweed, and cocklebur. The plant foliage and surrounding soil were treated with the test chemical dissolved in a non-phytotoxic solvent as an overall spray at the rate of 0.015 kg/ha, when the plants were 17 days old. Visual ratings of herbicidal effects were made 22 days after treatment utilizing the rating system described for Test A.

Rice [6] = assay: Test B pre-emergence on Fallsington silt loam; format: in vivo; conditions: 28 days
Description: as §1, §2

Jimsonweed = assay: Test B pre-emergence on Fallsington silt loam; format: in vivo, Datura stramonium; conditions: 28 days
Description: as §1, §2

Barley = assay: Test D pre-/post-emergence weed control in cereals; format: in vivo, Hordeum vulgarel; conditions: 20 days
Description: (§4) Two ten-inch in diameter plastic pans lined with polyethylene liners were filled with prepared Fallsington slit loam soil. One pan was planted with seeds of wheat (Triticum aestivum), barley (Hordeum vulgarel, wild oats (Avena fatua), downy brome (Bromus tectorum), cheatgrass (Bromus secalinus), blackgrass (Alopecurus myosuroides), annual bluegrass (Poa annual, green foxtail (Setaria viridis), quack grass (Agropyron repens), Italian ryegrass (Lolium multiflorum) and ripgut brome (Bromus rigidus). The other pan was planted with seeds of Russian thistle (Salsola kali), tansy mustard (Descuraina pinnata), smartweed (Polygonum pensylvanicum), tumble mustard (Sisymbrium altissium) kochia (Kochia scoparia), shepherd's purse (Capsella bursa-pastoris), Matricaria inodora, black nightshade (Solanum nigrum), yellow rocket (Barbarea vulgaris), wild mustard (Brassica kaber) and wild buckwheat (Polygonum convolvulus). The above two pans were treated pre-emergence. At the same time two pans in which the above plant species were growing were treated post-emergence. Plant height at the time of treatment ranged from 1-15 cm depending on plant species.
(§5) The compounds applied were diluted with a non-phytotoxic solvent and sprayed over-the-top of the pans. An untreated control and a solvent alone control were included for comparison. All treatments were maintained in the greenhouse for 20 days at which time the treatments were compared to the controls and the effects visually rated. The recorded data, presented in Table D, indicate that certain compounds from within the scope of the invention have utility for pre- and/or post-emergence weed control in cereal crops such as wheat and barley.

Green Foxtail = assay: Test D pre-/post-emergence weed control in cereals; format: in vivo, Setaria viridis; conditions: 20 days
Description: as §4, §5

Wild Mustard = assay: Test D pre-/post-emergence weed control in cereals; format: in vivo, Brassica kaber; conditions: 20 days
Description: as §4, §5

## COc1cc(OC)nc(NC(=O)NS(=O)(=O)c2ccccc2OS(C)(=O)=O)n1 [Compound 1, N-[(4,6-Dimethoxypyrimidin-2-yl)aminocarbonyl]-2-hydroxybenzenesulfonamide, methanesulfonate]
Wild Oats; 0.03 kg/ha
  Wild Oats response rating: 6G
Wild Oats; 0.12 kg/ha
  Wild Oats response rating: 10C
Mustard; 0.03 kg/ha
  Mustard response rating: 10C
Mustard; 0.12 kg/ha
  Mustard response rating: 10C
Cotton [1]; 0.03 kg/ha
  Cotton response rating: 8G
Sorghum; 0.12 kg/ha
  Sorghum response rating: 10C
Teaweed; 0.03 kg/ha
  Teaweed response rating: 6G
Velvetleaf; 0.12 kg/ha
  Velvetleaf response rating: 10C
Water Chestnut; 1 g/ha in paddy water
  Water Chestnut** 4 Weeks: 7G
Water Chestnut; 4 g/ha in paddy water
  Water Chestnut** 4 Weeks: 8G
Water Chestnut; 8 g/ha in paddy water
  Water Chestnut** 4 Weeks: 9G
Cocklebur [2]; 0.03 kg/ha
  Cocklebur response rating: 6G
Barnyardgrass; 1 g/ha in paddy water
  Barnyardgrass* 4 Weeks: 0
Barnyardgrass; 4 g/ha in paddy water
  Barnyardgrass* 4 Weeks: 0
Barnyardgrass; 8 g/ha in paddy water
  Barnyardgrass* 4 Weeks: 0
Cocklebur [3]; 0.003 kg/ha
  Cocklebur response rating: 5G
Cocklebur [3]; 0.007 kg/ha
  Cocklebur response rating: 7G
Rice [4]; 1 g/ha in paddy water
  Rice 4 Days: 0
  Rice 4 Weeks: 0
Rice [4]; 4 g/ha in paddy water
  Rice 4 Days: 0
  Rice 4 Weeks: 0
Rice [4]; 8 g/ha in paddy water
  Rice 4 Days: 0
  Rice 4 Weeks: 0
Cotton [5]; 0.003 kg/ha
  Cotton response rating: 10C

## CCCS(=O)(=O)Oc1ccccc1S(=O)(=O)NC(=O)Nc1nc(C)nc(OC)n1 [Compound 39, 2-hydroxy-N-[(4-methoxy-6-methyl-1,3,5-triazin-2-yl)aminocarbonyl]benzenesulfonamide, 1-propanesulfonate]
Wild Oats; 0.06 kg/ha
  Wild Oats response rating: 3G
Wild Oats; 0.25 kg/ha
  Wild Oats response rating: 3G
Soybeans
  Soybeans response rating: 0
Rice [6]; 0.06 kg/ha
  Rice response rating: 0
Rice [6]; 0.25 kg/ha
  Rice response rating: 0
Sorghum; 0.06 kg/ha
  Sorghum response rating: 4G
Cocklebur [2]; 0.25 kg/ha
  Cocklebur response rating: 10C

## Cc1cc(C)nc(NC(=O)NS(=O)(=O)c2ccccc2OS(C)(=O)=O)n1 [Compound 3, N-[(4,6-dimethylpyrimidin-2-yl)aminocarbonyl]-2-hydroxybenzenesulfonamide, methanesulfonate]
Wild Oats; 0.007 kg/ha
  Wild Oats response rating: 0
Wild Oats; 0.015 kg/ha
  Wild Oats response rating: 0
Wild Oats; 0.03 kg/ha
  Wild Oats response rating: 10C
Wild Oats; 0.12 kg/ha
  Wild Oats response rating: 10C
Mustard; 0.007 kg/ha
  Mustard response rating: 5G
Mustard; 0.03 kg/ha
  Mustard response rating: 10C
Mustard; 0.12 kg/ha
  Mustard response rating: 10C
Cotton [1]; 0.007 kg/ha
  Cotton response rating: 0
Cotton [1]; 0.015 kg/ha
  Cotton response rating: 0
Rice [6]; 0.007 kg/ha
  Rice response rating: 3G
Sorghum; 0.007 kg/ha
  Sorghum response rating: 2G
Sorghum; 0.015 kg/ha
  Sorghum response rating: 4G
Sorghum; 0.03 kg/ha
  Sorghum response rating: 10C
Teaweed; 0.015 kg/ha
  Teaweed response rating: 0
Teaweed; 0.03 kg/ha
  Teaweed response rating: 4G
Teaweed; 0.12 kg/ha
  Teaweed response rating: 10C
Velvetleaf; 0.007 kg/ha
  Velvetleaf response rating: 0
Velvetleaf; 0.015 kg/ha
  Velvetleaf response rating: 0
Cocklebur [2]; 0.007 kg/ha
  Cocklebur response rating: 0
Cocklebur [2]; 0.015 kg/ha
  Cocklebur response rating: 0
Cocklebur [2]; 0.03 kg/ha
  Cocklebur response rating: 7G
Jimsonweed; 0.007 kg/ha
  Jimsonweed response rating: 0
Jimsonweed; 0.015 kg/ha
  Jimsonweed response rating: 0
Cocklebur [3]; 0.003 kg/ha
  Cocklebur response rating: 3G
Cotton [5]; 0.007 kg/ha
  Cotton response rating: 10C

## CCCS(=O)(=O)Oc1ccccc1S(=O)(=O)NC(=O)Nc1nc(OC)cc(OC)n1 [Compound 36, N-[(4,6-dimethoxypropimidin-2-yl)aminocarbonyl]-2-hydroxybenzenesulfonamide, 1-propanesulfonate]
Wild Oats; 0.06 kg/ha
  Wild Oats response rating: 4G
Wild Oats; 0.25 kg/ha
  Wild Oats response rating: 4G
Cotton [1]; 0.06 kg/ha
  Cotton response rating: 4G
Rice [6]; 0.06 kg/ha
  Rice response rating: 3G
Rice [6]; 0.25 kg/ha
  Rice response rating: 5G
Water Chestnut; 25 g/ha in paddy water
  Water Chestnut** 8 Weeks: 10C
Water Chestnut; 100 g/ha in paddy water
  Water Chestnut** 8 Weeks: 10C
Barley; Post-Emergence, 0.015 kg/ha
  Barley response rating: 0
Barley; Post-Emergence, 0.06 kg/ha
  Barley response rating: 0
Barley; Pre-Emergence, 0.015 kg/ha
  Barley response rating: 0
Barley; Pre-Emergence, 0.06 kg/ha
  Barley response rating: 0
Green Foxtail; Post-Emergence, 0.015 kg/ha
  Green Foxtail response rating: 1G
Green Foxtail; Post-Emergence, 0.06 kg/ha
  Green Foxtail response rating: 2G
Green Foxtail; Pre-Emergence, 0.015 kg/ha
  Green Foxtail response rating: 2G
Jimsonweed; 0.06 kg/ha
  Jimsonweed response rating: 3G
Barnyardgrass; 25 g/ha in paddy water
  Barnyardgrass* 8 Weeks: 0
Barnyardgrass; 100 g/ha in paddy water
  Barnyardgrass* 8 Weeks: 0
Rice [4]; 25 g/ha in paddy water
  Rice 1 Week: 0
  Rice 8 Weeks: 0
Rice [4]; 100 g/ha in paddy water
  Rice 1 Week: 0
  Rice 8 Weeks: 0
Wild Mustard; Post-Emergence, 0.015 kg/ha
  Wild Mustard response rating: 10C
Wild Mustard; Post-Emergence, 0.06 kg/ha
  Wild Mustard response rating: 10C
Wild Mustard; Pre-Emergence, 0.06 kg/ha
  Wild Mustard response rating: 10C
